# Key:
# [1] = tested on: TNFα; assay: Expression of TNFα in MonoMac 6 cells after stimulation with FPRL-1 ligands (TaqMan); details: 200 nM
# Procedure: (§1) In order to examine the effects of ligands for FPRL-1, MonoMac6 cells are seeded at a density of 250,000 cells/ml in 24-well plates (with 2 ml per well), grown for 24 hours at 37° C., 5% CO2 in a humidified atmosphere before stimulation with 200 nM lipoxin A4 (Biomol), W-peptide (1 μM) (synthesized by Metabion, Martinsried), and LPS (Sigma) as a positive control. Cells are harvested at different time points, and total RNA is isolated as described above using the Qiagen RNeasy Total RNA Isolation Kit (Qiagen).
# (§2) The RNA is used for Taqman analysis in order to monitor the expression of inflammatory markers like TNFα, IL-8, and MMP-12.
# [2] = tested on: MMP-12; assay: Expression of MMP-12 in MonoMac 6 cells after stimulation with FPRL-1 ligands (TaqMan); details: 200 nM
# Procedure: as §1, §2
# [3] = tested on: monocytes; details: cited from earlier work
# [4] = tested on: neutrophils; details: cited from earlier work
# [5] = tested on: IL-8; assay: Expression of IL-8 in MonoMac 6 cells after stimulation with FPRL-1 ligands (TaqMan); details: 200 nM
# Procedure: as §1, §2
# [6] = tested on: MonoMac6 cells; assay: Chemotaxis (migration) of MonoMac6 cells, 48-well chemotaxis chamber; type: cell-based, human; details: PMA-treated MonoMac6 cells, 4 hours of migration, fold increase in migrated cells over control medium
# Procedure: Since an increased invasion of macrophages in peripheral airways of COPD patients can be observed, we tested the chemotactic ability of MonoMac6 cells which serve as a cell culture model for alveolar macrophages. Chemotaxis of MonoMac6 is determined by administering different ligands for FPRL-1.
# MonoMac6 cells are treated with PMA for 24-30 hours in order to induce an activation state of the cells. Cells are harvested, washed twice with RPMI 1640 without supplements, and seeded at a density of 500,000 cells/well (24-well plate) in the presence of 10 nM PMA. After 24-30 hours cells are released from the substratum by repeated rinsing with a pipet, spun down, counted and adjusted to a density of 1×10^6 cells/ml of RPMI 1640 media without supplements but in the presence of 10 nM PMA. Chemotaxis is performed in a 48-well chemotaxis chamber (Neuroprobe Inc.) and polycarbonate membranes with a pore size of 8 μm (Neuroprobe Inc.). The lower wells of the chamber are filled with 28 μl of different concentrations of lipoxin A4, W-peptide, MCP-1 as a positive control, and RPMI 1640 media without supplements (including 10 nM PMA) as a negative control. The lower wells are covered with the polycarbonate membrane and the upper compartments of the chamber are filled with 50 μl of the cell suspension (50,000 cells per well). After 4 hours of migration at 37° C., 5% CO2 the cells on the upper part of the membrane are scraped off and the cells attached at the lower part of the membrane are stained with the Diff Quik Staining Set (Dade Behring) according to the manufacturer's protocol. Stained cells are counted in 6 to 8 high power fields at a magnification of 250× with a light microscope. The migration index represents the fold increase in the number of cells migrated in response to the chemoattractant over control medium.
# [7] = tested on: human bronchi; details: cited from earlier work
# [8] = tested on: FPRL-1; assay: Expression of FPRL-1 in MonoMac6 cells after stimulation (TaqMan analysis); type: cell-based, human; details: 10 nM PMA
# Procedure: MonoMac6 cells are cultivated in 24-well plates in RPMI 1640 media, supplemented with 10% FCS (low endotoxin), 2 mM glutamine, 1× non-essential amino acids, 200 U/ml penicillin, 200 μg/ml streptomycin, and 5 ml OPI media supplement (Sigma). Cells are grown to a density of 600,000 cells per well (2 ml media) and stimulated with 10 nM PMA (phorbol 12-myristate 13-acetate) (Sigma), or 20 ng/ml LPS (lipopolysaccharides from Salmonella minnesota Re595) (Sigma). For smoke exposure, cells are incubated in media enriched with smoke for 10 minutes at 37° C., 5% CO2 at a density of 1×10^6 cells/ml. Enrichment of RPMI 1640 media with smoke is performed with the smoke of two cigarettes. The smoke of the cigarettes is pulled into a 50 ml syringe (about 20 volumes of a 50-ml syringe per cigarette) and then perfused into 100 ml of RPMI 1640 media without supplements. Afterwards, the pH of the smoke-enriched media is adjusted to 7.4 and the media is sterilized through a 0.2 μm filter before use. After the exposure with smoke cells are washed at least twice with RPMI 1640 in order to remove residual smoke particles. Then cells are seeded in 24-well plates with 400,000-600,000 cells per well filled with 2 ml of fresh RPMI 1640 media including the supplements mentioned above.
# Both cell types are cultivated at 37° C., 5% CO2 in a humidified atmosphere and cells are harvested at various time points in order to monitor time-dependent effects. Cells are spun down and washed with PBS, resuspended in 400 μl of RLT buffer (Qiagen RNeasy Total RNA Isolation Kit) with 143 mM β-mercaptoethanol, the DNA is sheared with a 20 g needle for at least 5 times and stored at −70° C.
# Total RNAs are isolated with the Qiagen RNeasy Total RNA Isolation Kit (Qiagen) according to the manufacturer's protocol. Purified RNA is digested with RNase-free DNase (Qiagen) and used for TaqMan analysis.
# Taqman analysis is used to determine mRNA-levels for FPRL-1 in cell lines after treatment with and without various stimuli at different time points. Total RNA isolated from U937 cells that were treated for 3 days with […] is used in order to optimize reaction conditions for determining the mRNA-levels of FPRL-1 and setting standard curves for FPRL-1 and GAPDH (glyceraldehyde-3-phosphate dehydrogenase) as a housekeeping gene. Quantification of FPRL-1 is done with the following primers: Forward primer (rhHM63 668FP, SEQ ID NO:22), Reverse primer (hHM63 525(+)RP, SEQ ID NO:23) and TaqMan probe (rhHM63 629(−)TP, SEQ ID NO:24) labeled with reporter dye FAM at the 5′ end and quencher dye TAMRA at the 3′ end. The mRNA-levels for GAPDH are determined with a predeveloped kit for GAPDH “TaqMan GAPDH Control Reagents” (P/N 402869) from PE Applied Biosystems. The GAPDH probe is labeled with JOE as the reporter dye and TAMRA as the quencher dye. RT-PCR reactions are performed with the “TaqMan EZ RT-PCR Core Reagents” (P/N N808-0236) kit from Perkin Elmer. Standard curves for FPRL-1 and GAPDH are performed with increasing concentrations of RNA from U937 cells treated with 1 μM retinoic acid ranging from 0, 5, 10, 25, 50 to 100 ng per assay. Reaction mixes contain 1× TaqMan EZ-buffer, 3 mM Mn(Oac)2, 300 μM dATP, dCTP, dGTP, and 600 μM dUTP, 2.5 U rTth DNA polymerase, 0.25 U AmpErase UNG in a total volume of 25 μl. For analysis of FPRL-1 reaction mixes include 300 nM of rhHM63 668(−)FP and hHM63 525(+)RP and 100 nM of rhHM63 629(−)TP. The primer concentrations for determining GAPDH levels are 200 nM for each primer and 100 nM for the Taqman probe. In order to determine mRNA levels for FPRL-1 and GAPDH in human subjects and cell lines, 16 to 50 ng RNA per reaction are used. All samples are run in triplicate. The reactions are performed with “MicroAmp Optical 96-well reaction plates” sealed with “MicroAmp Optical Caps” (PE Applied Biosystems) in an ABI PRISM 7700 Sequence Detection System (PE Applied Biosystems). […]
molecule,measurement,setting,value
"CCCCC[C@H](O)/C=C/C=C\C=C\C=C\[C@@H](O)[C@@H](O)CCCC(=O)O [Lipoxin A4, lipoxin A4]","Expression of TNFα, Fold Induction",[1]; t 0 h,1.00 fold
same,"Expression of TNFα, Fold Induction",[1]; t 3 h,2.43 fold
same,"Expression of MMP-12, Fold Induction",[2]; t 0 h,1.00 fold
same,"Expression of MMP-12, Fold Induction",[2]; t 3 h,1.42 fold
same,"chemotaxis, adherence and calcium release in monocytes",[3],stimulates
same,chemotaxis and adhesion in neutrophils,[4],inhibits
same,transmigration through epithelial cells,[4],downregulates
same,"Expression of IL-8, Fold Induction",[5]; t 0 h,1.00 fold
same,"Expression of IL-8, Fold Induction",[5]; t 3 h,1.99 fold
same,Migration Index,[6]; 10 nM,0.86
same,Migration Index,[6]; 100 nM,1.31
same,Migration Index,[6]; 1 μM,1.68
same,contraction of human bronchi,[7],dose-dependent contraction
"CCCCCCCCCCCCCC(=O)O[C@@H]1[C@@H](C)[C@@]2(O)[C@@H](C=C(CO)C[C@]3(O)C(=O)C(C)=C[C@@H]23)[C@@H]2C(C)(C)[C@]12OC(C)=O [PMA, phorbol 12-myristate 13-acetate]",ng FPRL-1 mRNA/ ng GAPDH mRNA,[8]; t 0 h,0.00 ng FPRL-1 mRNA/ ng GAPDH mRNA
same,ng FPRL-1 mRNA/ ng GAPDH mRNA,[8]; t 1 h,0.00 ng FPRL-1 mRNA/ ng GAPDH mRNA
same,ng FPRL-1 mRNA/ ng GAPDH mRNA,[8]; t 3 h,0.00 ng FPRL-1 mRNA/ ng GAPDH mRNA
same,ng FPRL-1 mRNA/ ng GAPDH mRNA,[8]; t 12 h,0.00 ng FPRL-1 mRNA/ ng GAPDH mRNA
same,ng FPRL-1 mRNA/ ng GAPDH mRNA,[8]; t 24 h,0.00 ng FPRL-1 mRNA/ ng GAPDH mRNA
same,ng FPRL-1 mRNA/ ng GAPDH mRNA,[8]; t 48 h,0.43 ng FPRL-1 mRNA/ ng GAPDH mRNA
same,ng FPRL-1 mRNA/ ng GAPDH mRNA,[8]; t 72 h,0.01 ng FPRL-1 mRNA/ ng GAPDH mRNA
"CSCC[C@H](NC(=O)[C@H](Cc1ccc(O)cc1)NC(=O)[C@H](CCCCN)NC(=O)[C@@H](N)Cc1c[nH]c2ccccc12)C(=O)N[C@H](C(=O)N[C@H](CCSC)C(N)=O)C(C)C [W-peptide, W-K-Y-M-V-m]",Migration Index,[6]; 10 nM,0.95
same,Migration Index,[6]; 100 nM,1.23
same,Migration Index,[6]; 1 μM,2.46
monocyte chemotactic protein 1 [MCP-1],Migration Index,[6]; 20 ng/ml,2.59

# Reference: US6773895B2, “Method for identifying substances which positively influence inflammatory conditions of chronic inflammatory airway diseases” (Boehringer Ingelheim Pharma KG, priority 2000, dated 2004)
